Assay results reported in ChEMBL document CHEMBL4364355, “New Negamycin-Based Potent Readthrough Derivative Effective against TGA-Type Nonsense Mutations” (ACS Med Chem Lett, 2019).
The source made the active and inactive calls. No cut-off for these calls is given here.

Assays:
Format in all cases: cell-based
[1] = species on record: Mus musculus; experiment: (§1) Induction of read through activity at premature termination codon TGA (non-sense mutation associated with DMD disease) in 27-mer DNA stretch sequence of mouse dystrophin mdx gene transfected as a plasmid by connecting with beta-galactosidase and luciferase genes in COS7 cells assessed as ratio of luciferase activity to beta-galactosidase activity at 200 uM incubated for 48 hrs by dual luciferase reporter gene assay relative to control
[2] = species on record: Mus musculus; experiment: as §1, with “TAG” for “TGA”
[3] = species on record: Mus musculus; experiment: as §1, with “TAA” for “TGA”
[4] = species on record: Homo sapiens; experiment: Induction of read through activity at premature termination codon TGA in human RLuc-TP53 R213X non-sense mutation sequence transfected in COS7 cells at 200 uM incubated for 48 hrs by dual luciferase reporter gene assay relative to control
[5] = species on record: Homo sapiens; experiment: Induction of read through activity at premature termination codon TGA in human RLuc-LAMA2 C1546X non-sense mutation sequence transfected in COS7 cells at 200 uM incubated for 48 hrs by dual luciferase reporter gene assay relative to control
[6] = test system: HDQ-P1; experiment: (§2) Induction of read through activity at premature termination codon TGA in human HDQ-P1 cells harboring TP53 R213X homozygous non-sense mutation sequence assessed as expression of full length p53 protein at 200 uM incubated for 72 hrs by automated capillary electrophoresis western analysis relative to vinculin expression
[7] = species on record: Homo sapiens; experiment: Induction of read through activity at premature termination codon TGA in human RLuc-DMD R3381X non-sense mutation sequence transfected in COS7 cells at 200 uM incubated for 48 hrs by dual luciferase reporter gene assay relative to control
[8] = species on record: Homo sapiens; experiment: Induction of read through activity at premature termination codon TAG in human RLuc-TP53 Q192X non-sense mutation sequence transfected in COS7 cells at 200 uM incubated for 48 hrs by dual luciferase reporter gene assay relative to control
[9] = species on record: Homo sapiens; experiment: Induction of read through activity at premature termination codon TGA in human RLuc-CF G542X non-sense mutation sequence transfected in COS7 cells at 200 uM incubated for 48 hrs by dual luciferase reporter gene assay relative to control
[10] = species on record: Homo sapiens; experiment: Induction of read through activity at premature termination codon TGA in human RLuc-CF W1282X non-sense mutation sequence transfected in COS7 cells at 200 uM incubated for 48 hrs by dual luciferase reporter gene assay relative to control
[11] = test system: HDQ-P1; experiment: Cytotoxicity against human HDQ-P1 cells at 200 uM; conditions: hdq-p1, 200 µM
[12] = species on record: Mus musculus; experiment: as §1, with “cells” for “cells assessed as ratio of luciferase activity to beta-galactosidase activity at 200 uM”, “TGP112” for “control”
[13] = test system: COS-7; experiment: Cytotoxicity against African green monkey COS7 cells assessed as decrease in cell viability by WST1 assay; conditions: Chlorocebus aethiops
[14] = species on record: Mus musculus; experiment: as §1, with “cells” for “cells assessed as ratio of luciferase activity to beta-galactosidase activity at 200 uM”, “assay” for “assay relative to control”
[15] = test system: HDQ-P1; experiment: as §2, with “12.5” for “200”
[16] = test system: HDQ-P1; experiment: as §2, with “25” for “200”
[17] = test system: HDQ-P1; experiment: as §2, with “50” for “200”
[18] = test system: HDQ-P1; experiment: as §2, with “100” for “200”
[19] = test system: HDQ-P1; experiment: Induction of read through activity at premature termination codon TGA in human HDQ-P1 cells harboring TP53 R213X homozygous non-sense mutation sequence at 200 uM incubated for 72 hrs by automated capillary electrophoresis western analysis relative to G418
[20] = species on record: Mus musculus; experiment: as §1, with “cells” for “cells assessed as ratio of luciferase activity to beta-galactosidase activity at 200 uM”, “(+)-negamycin” for “control”
[21] = species on record: Mus musculus; experiment: as §1, with “cells” for “cells assessed as ratio of luciferase activity to beta-galactosidase activity at 200 uM”, “(+)-G418” for “control”

CN(CC(=O)O)NC(=O)C[C@@H](N)CCN
Ratio [1]: 3.8 to 4.26 | Ratio [2]: 1.48 | Ratio [3]: 1.2 | Activity [4]: 1.95% | Activity [5]: 1.85% | Ratio [6]: 7.9

CN[C@H]1[C@H](O)[C@H](O[C@@H]2[C@@H](O)[C@H](O[C@H]3O[C@H]([C@@H](C)O)[C@@H](O)[C@H](O)[C@H]3N)[C@@H](N)C[C@H]2N)OC[C@@]1(C)O
Ratio [1]: 7.43 to 7.99 | Ratio [2]: 7.86 | Ratio [3]: 4.78 | Activity [7]: 1.62 to 7.25% | Activity [4]: 1.62 to 7.25% | Activity [8]: 1.62 to 7.25% | Activity [9]: 1.62 to 7.25% | Activity [10]: 1.62 to 7.25% | Activity [5]: 1.62 to 7.25% | Ratio [6]: 72 | Activity [11]: Non-Toxic

CN(CC(=O)O)NC(=O)C[C@H](CCN)NC(=O)[C@@H](N)CN
Ratio [1]: 3.02

CN(CC(=O)O)NC(=O)C[C@H](N)C[C@@H](O)CN
Ratio [1]: 1.47 to 2.25 | Ratio [2]: 1.17 | Ratio [3]: 1.13

CN(CC(=O)O)NC(=O)C[C@H](CCN)NC(=O)[C@@H](N)Cc1ccccc1
Ratio [1]: 2.99

CC(C)C[C@H](N)C(=O)N[C@@H](CCN)CC(=O)NN(C)CC(=O)O
Ratio [1]: 4.94

CN(CC(=O)O)NC(=O)C[C@H](CCN)NC(=O)[C@@H](N)CC1CCCCC1
Ratio [1]: 5.87

CN(CC(=O)O)NC(=O)C[C@H](CCN)NC(=O)[C@@H](N)Cc1ccc(O)cc1
Ratio [1]: 2.59

CN(CC(=O)O)NC(=O)C[C@H](CCN)NC(=O)[C@@H](N)CC(N)=O
Ratio [1]: 2.21

CN(CC(=O)O)NC(=O)C[C@H](CCN)NC(=O)[C@@H](N)CO
Ratio [1]: 1.48

CCCCCCC[C@H](N)C(=O)N[C@@H](CCN)CC(=O)NN(C)CC(=O)O
Ratio [1]: 7.97 | Ratio [12]: 2

CN(CC(=O)O)NC(=O)C[C@H](CCN)NC(=O)[C@@H](N)CCCN
Ratio [1]: 2.96

CN(CC(=O)O)NC(=O)C[C@H](CCN)NC(=O)[C@@H](N)CCN
Ratio [1]: 3.25

CN(CC(=O)O)NC(=O)C[C@H](CCN)NC(=O)[C@@H](N)CCCCN
Ratio [1]: 2.49

CN(CC(=O)O)NC(=O)C[C@H](CCN)NC(=O)[C@@H](N)CCC(=O)O
Ratio [1]: 1.8

CC(C)[C@H](N)C(=O)N[C@@H](CCN)CC(=O)NN(C)CC(=O)O
Ratio [1]: 2

CN[C@@H](CC(C)C)C(=O)N[C@@H](CCN)CC(=O)NN(C)CC(=O)O
Ratio [1]: 2.45

CN(CC(=O)O)NC(=O)C[C@H](CCN)NC(=O)[C@@H](N)CC(=O)O
Ratio [1]: 1.96

CC(C)C[C@H](N)C(=O)N[C@@H](CCCN)CC(=O)NN(C)CC(=O)O
Ratio [1]: 2.3 | Ratio [2]: 1.3 | Ratio [3]: 1.11

CN(CC(=O)O)NC(=O)C[C@H](CCN)NC(=O)CN
Ratio [1]: 2.74

CC[C@H](C)[C@H](N)C(=O)N[C@@H](CCN)CC(=O)NN(C)CC(=O)O
Ratio [1]: 1.83

CCCC[C@H](N)C(=O)N[C@@H](CCN)CC(=O)NN(C)CC(=O)O
Ratio [1]: 4.21

CN(CC(=O)O)NC(=O)C[C@H](CCN)NC(=O)[C@@H](N)CCC(N)=O
Ratio [1]: 1.62

CC(C)CCC(=O)N[C@@H](CCN)CC(=O)NN(C)CC(=O)O
Ratio [1]: 2.82

CCCCCCCCCCC[C@H](N)C(=O)N[C@@H](CCN)CC(=O)NN(C)CC(=O)O
IC50 [13]: 68.2 µM

CC(C)C[C@@H](N)C(=O)N[C@@H](CCN)CC(=O)NN(C)CC(=O)O
Ratio [1]: 1.46

CCCCCCCCC[C@H](N)C(=O)N[C@@H](CCN)CC(=O)NN(C)CC(=O)O
Ratio [1]: 16 to 18.3 | Ratio [2]: 4.39 | Ratio [3]: 2.24 | Activity [14]: Dose-dependent effect | Activity [7]: 2.25 to 7.3% | Activity [4]: 2.25 to 7.3% | Activity [8]: inactive | Activity [9]: 2.25 to 7.3% | Activity [10]: inactive | Activity [5]: 6.34% | Ratio [6]: 215 | Ratio [15]: 2.3 | Ratio [16]: 2.4 | Ratio [17]: 6.7 | Ratio [18]: 48 | Ratio [19]: 3 | Ratio [20]: 10 | Ratio [21]: 2 | Ratio [12]: 4

C[C@H](N)C(=O)N[C@@H](CCN)CC(=O)NN(C)CC(=O)O
Ratio [1]: 2.4

CCCCC[C@H](N)C(=O)N[C@@H](CCN)CC(=O)NN(C)CC(=O)O
Ratio [1]: 3.4
